Experimental data published in patent US10086030B2, “Use of composition in preparing health care products or medicines for preventing and treating allergic diseases” (JIANGZHONG PHARMACEUTICAL CO., LTD., priority 2012, dated 2018).
“And” between values parts separate entries of the source, which are not always exact repeats. Identical values can stand only once.

Legend:
[1] = system: allergic asthma in rats caused by OVA; experiment: Allergic asthma in rats caused by OVA: latent period of asthma, serum IL-4 and IFN-γ, EOS content in lung tissues; assay type: in vivo, SD rats; settings: dexamethasone 0.5 mg/kg; for latent period of asthma, Before dosing: before dosing (baseline)
[2] = system: allergic asthma in guinea pigs caused by a mixed gas of Ach and His; experiment: Allergic asthma in guinea pigs caused by a mixed gas of Ach and His: latent period, total IgE in serum and BALF, EOS content in lung tissues; assay type: in vivo; settings: for latent period of asthma, Before dosing: before dosing (baseline)
Method: 2.2 Effect on Allergic Asthma in Guinea Pigs Caused by a Mixed Gas of Ach and his
On day 1, guinea pigs were placed in a closed 4 L glass bell jar, into which a 1:1 mixture solution of 2% Ach and 0.4% His was sprayed by ultrasonic atomization for 15 s. After completion of spraying, the latent period of asthma induced in the guinea pigs was recorded (i.e., the period from the end of the spraying to asthmatic onsets, extreme difficulty in breathing till twitching and falling down). Animals having a latent period of asthma longer than 120 s were excluded.
Dual-antibody sandwich radioimmunoassay was employed.

[3] = system: allergic asthma in rats caused by OVA; experiment: Allergic asthma in rats caused by OVA: latent period of asthma, serum IL-4 and IFN-γ, EOS content in lung tissues; assay type: in vivo, SD rats
Text: Rats (half thereof were male and the other half female) were randomly divided into two groups, i.e., a blank control group of 10 animals and a modeling group of 70 animals. After a successful modeling, the rats were randomly divided into the following groups: a model control group, a positive drug group (dexamethasone group), and groups on the low, medium, and high doses of Composition 3, with 10 animals in each group.
On day 1, all animals except those in the blank control group were sensitized by intraperitoneal injection with 1 ml suspension containing 10 mg OVA, 200 mg Al(OH)3 dry powder, and 6×10^9 inactivated pertussis vaccines in physiological saline, and were sensitized once again on day 8.
The daily intake of the test drug Composition 3 composite powder recommended for one person was 24 g crude drug/60 kg body weight. On the basis thereof, the calculated daily intake for a rat was: low dose group: 1.0 g crude drug/kg body weight; medium dose group: 2.0 g crude drug/kg body weight; high dose group: 6.0 g crude drug/kg body weight, which were 2.5, 5 and 15 times the daily intake for a human, respectively. […] The volume of intragastric administration was calculated as 1.0 ml/100 g body weight. The model control group was intragastrically given an equivalent volume of 0.9% physiological saline 30 minutes before challenging; and the positive drug group was given dexamethasone at a dose of 0.5 mg/kg 30 min before each challenging^[2]. The groups on the low, medium and high doses of Composition 3 were each intragastrically given the respective dose of the test drug 30 min before each challenging. […]
A ZH-100 respiratory transducer was tied around the thoracic cage of each rat (the tension was adjusted to about 1 to 2 g so that the amplitude of the respiratory wave was 1 to 2 my). […] The acquisition system was turned on and a segment of normal respiratory wave was recorded. Then ultrasonic atomization with 1% OVA was applied for 20 min, and the respiratory waves of induced asthma in the rats were continuously recorded over 30 min after the atomization was initiated. Meanwhile, the period from the beginning of atomization to occurrence of symptoms (indicated by the first twitch) was visually observed and recorded as the latent period of asthma.
24 h after the final challenge, the rats were anaesthetized by intraperitoneal injection with 3% sodium pentobarbital (30 mg/kg). 5 to 10 ml blood was drawn, and serum IL-4 and IFN-γ levels were measured by ELISA.
The left lung tissues were cut off and fixed in 4% polyformaldehyde for 4 to 5 h, then washed with water, dehydrated with an alcohol gradient, and immersed and embedded in paraffine. HE staining was performed with a successive sectioning process, inflammatory changes in the tissues were observed, and EOS infiltration was counted. For each section, 10 fields were randomly chosen under a microscope at high magnification (×400) by the same observer, and the numbers of EOS infiltration around bronchus and vessels were calculated and averaged as the representative value for this section.
The daily intake of the test drug Composition 4 composite powder recommended for one person was 24 g crude drug/60 kg body weight. On the basis thereof, the calculated daily intake for a rat was: low dose group: 1.0 g crude drug/kg body weight; medium dose group: 2.0 g crude drug/kg body weight; high dose group: 6.0 g crude drug/kg body weight, which were 2.5, 5 and 15 times the daily intake for a human, respectively.

[4] = baseline, positive control group (dexamethasone 0.5 mg/kg)
[5] = dexamethasone 0.5 mg/kg, Composition 6 study
[6] = dexamethasone 0.5 mg/kg, Composition 7 study
[7] = dexamethasone 0.5 mg/kg, Composition 5 study
[8] = positive control dexamethasone 0.5 mg/kg, 21 days

Compound: C[C@@H]1C[C@H]2[C@@H]3CCC4=CC(=O)C=C[C@]4(C)[C@@]3(F)[C@@H](O)C[C@]2(C)[C@@]1(O)C(=O)CO [dexamethasone]
- latent period of asthma, After dosing ([1]; Composition 6 study): 159.78 ± 20.27^ΔΔ
- latent period of asthma, After dosing ([1]; Composition 7 study): 156.30 ± 21.44^ΔΔ
- latent period of asthma, After dosing ([1]; Composition 8 study): 159.87 ± 20.38^ΔΔ
- latent period of asthma, Before dosing ([1]; Composition 6 study): 74.67 ± 11.10
- latent period of asthma, Before dosing ([1]; Composition 7 study): 72.88 ± 10.96
- latent period of asthma, Before dosing ([1]; Composition 8 study): 73.66 ± 11.19
- EOS content in lung tissues ([1]; Composition 6 study): 28.40 ± 4.25^ΔΔ cells/HP
- IFN-γ (serum) ([1]; Composition 6 study): 20.27 ± 4.89^ΔΔ pg/ml
- IL-4 (serum) ([1]; Composition 6 study): 13.50 ± 4.32^ΔΔ pg/ml
- EOS content in lung tissues ([1]; Composition 7 study): 35.64 ± 6.18^ΔΔ cells/HP
- IFN-γ (serum) ([1]; Composition 7 study): 19.29 ± 4.04^ΔΔ pg/ml
- IL-4 (serum) ([1]; Composition 7 study): 12.90 ± 4.67^ΔΔ pg/ml
- EOS content in lung tissues ([1]; Composition 8 study): 28.39 ± 4.26^ΔΔ cells/HP
- IFN-γ (serum) ([1]; Composition 8 study): 20.16 ± 4.96^ΔΔ pg/ml
- IL-4 (serum) ([1]; Composition 8 study): 13.41 ± 4.21^ΔΔ pg/ml
- total IgE in BALF ([2]; BALF, positive control group, 0.5 mg/kg): 3.62 ± 0.62^ΔΔ U/L
- latent period of asthma, After dosing ([2]; after dosing, dexamethasone 0.5 mg/kg, Composition 6 study): 155.78 ± 16.29^ΔΔ
- latent period of asthma, After dosing ([2]; after dosing, dexamethasone 0.5 mg/kg, Composition 7 study): 150.46 ± 16.80^ΔΔ
- latent period of asthma induced in guinea pigs, after dosing ([2]; after dosing, positive control group, 0.5 mg/kg): 156.77 ± 16.18^ΔΔ
- latent period of asthma induced, Before dosing [2, 4]: 77.32 ± 13.95 and 75.63 ± 9.09 and 75.65 ± 9.10
- latent period of asthma induced in guinea pigs, before dosing ([2]; before dosing (after modeling), positive control group, 0.5 mg/kg): 74.63 ± 9.04
- latent period of asthma, Before dosing [2, 5]: 75.62 ± 9.10
- latent period of asthma, Before dosing [2, 6]: 70.68 ± 9.65
- EOS content in lung tissues [2, 7]: 30.77 ± 7.21^ΔΔ cells/HP
- total IgE in BALF [2, 7]: 3.70 ± 0.73^ΔΔ U/L
- total IgE in serum [2, 7]: 3.74 ± 1.32^ΔΔ U/L
- EOS content in lung tissues [2, 5]: 30.80 ± 7.23^ΔΔ cells/HP
- total IgE in BALF [2, 5]: 3.71 ± 0.70^ΔΔ U/L
- total IgE in serum [2, 5]: 3.74 ± 1.30^ΔΔ U/L
- EOS content in lung tissues [2, 6]: 31.70 ± 9.52^ΔΔ cells/HP
- total IgE in BALF [2, 6]: 3.50 ± 0.78^ΔΔ U/L
- total IgE in serum [2, 6]: 3.70 ± 1.26^ΔΔ U/L
- EOS content in guinea pigs' lung tissues ([2]; lung tissues, positive control group, 0.5 mg/kg): 30.69 ± 7.35^ΔΔ cells/HP
- EOS content in lung tissues [2, 8]: 31.78 ± 7.55^ΔΔ cells/HP and 30.79 ± 7.25^ΔΔ cells/HP
- latent period of asthma induced, After dosing [2, 8]: 160.92 ± 19.72^ΔΔ and 155.77 ± 16.28^ΔΔ and 155.78 ± 16.24^ΔΔ
- total IgE in BALF [2, 8]: 3.49 ± 0.82^ΔΔ U/L and 3.72 ± 0.72^ΔΔ U/L
- total IgE in serum [2, 8]: 3.58 ± 1.19^ΔΔ U/L and 3.75 ± 1.31^ΔΔ U/L
- total IgE in serum ([2]; serum, positive control group, 0.5 mg/kg): 3.65 ± 1.21^ΔΔ U/L
- latent period of asthma induced, Before dosing [3, 4]: 75.84 ± 12.36 and 74.66 ± 11.09 and 74.64 ± 11.03
- latent period of asthma induced, After dosing ([3]; positive control dexamethasone 0.5 mg/kg 30 min before each challenge, 21 days): 162.61 ± 17.88^ΔΔ and 159.77 ± 20.28^ΔΔ and 160.21 ± 20.32^ΔΔ
- EOS content in lung tissues [3, 8]: 27.51 ± 4.31^ΔΔ cells/HP and 28.39 ± 4.26^ΔΔ cells/HP and 28.42 ± 4.24^ΔΔ cells/HP
- serum IFN-γ [3, 8]: 20.51 ± 4.65^ΔΔ pg/ml and 20.26 ± 4.86^ΔΔ pg/ml and 20.27 ± 4.88^ΔΔ pg/ml
- serum IL-4 [3, 8]: 12.88 ± 4.13^ΔΔ pg/ml and 13.51 ± 4.31^ΔΔ pg/ml and 13.50 ± 4.28^ΔΔ pg/ml
